In patent US11730730B2, “Cell-based screening and compounds that modulate GalNAc-transferases” (Carnegie Mellon University, priority 2018, dated 2023):
Where two headings read alike, the source gives them in different places.

Key:
ppGalNAc-T2 = ppGalNAc-T2 (Homo sapiens, UniProt Q10471); conditions: HEK cells expressing T2 sensor, 6 h, 0-50 μM
Protocol: (§1) Primary screen. HEK cells stably expressing the T2 sensor (containing ANGPTL3 linker sequence with T225G modification) or the T3 sensor (containing FGF23-based linker) were cultured in MEM (Corning, N.Y., Cat #10-010-CV) with 10% fetal bovine serum (FBS, Atlanta Biologicals, Flowery Branch, Ga., Cat #5111150) and 100 IU/ml penicillin-streptomycin (Sigma-Aldrich, Cat #P4333) at 37° C., 5% CO2. Positive controls were cell lines expressing matched sensors with the glycosylation site mutated (Δglycan), specifically T225G/T226G and T178G for the T2 and T3 sensors, respectively. Cells (50,000/well) were seeded in flat bottom 96-well-plates (Corning, N.Y., Cat #3997) and grown for 24 h. Compounds (the diversity set from ChemBridge Corporation (Chicago, Ill.) and the approved oncology drugs set V and the diversity set II from the National Cancer Institute Developmental Therapeutics Program) were then added to achieve a 10 μM final concentration. […] The plates were then transferred to an Accuri™ C6 flow cytometer (BD Biosciences) where GFP and MG fluorescence was measured using 488 nm and 640 nm for 10,000 cells per well. […]
(§2) Titration assays. […] After 5 min at 37° C., fluorescence measurements (20,000 cells/well) were carried out as described above. […]

ppGalNAc-T3 = ppGalNAc-T3 (Homo sapiens, UniProt Q14435); conditions: read-out: apparent IC50 of T3 sensor activation; HEK cells expressing T3 sensor, 6 h, 0-50 μM
Protocol: as §1, §2

purified ppGalNAc-T2 = purified ppGalNAc-T2 (Homo sapiens, UniProt Q10471); conditions: purified enzyme, in vitro glycosylation
Protocol: (§3) A second stage reaction (UDP-GLO™) then converted the accumulated UDP product to ATP and then, via luciferase, to light.
(§4) Secondary screen. Glycosylation assays using recombinant ppGalNAc-T2 and ppGalNAc-T3 were carried out using the UDP-GLO™ Glycosyltransferase assay kit (Promega, Madison, Wis., Cat #V6962), according to the manufacturer's recommendation. The reaction (25 μl) included 2.5 ng/μl purified enzyme, 25 μM UDP-GalNAc (Sigma-Aldrich, Cat #U5252), 12.5 μM EA2 peptide (AnaSpec, Mucin 10, AA153-165, […], Cat #AS-63841), 25 mM Tris-HCl (pH7.5) (Fisher Scientific, Cat #77-86-1), 5 mM MnCl2 (Fisher Scientific, Cat #M87-500), 2.5 mM CaCl2) (Fisher Scientific, Cat #C70-500) and 50 μM compound. The negative control was vehicle only (same reaction mixture with a matched percentage of DMSO instead of compound), whereas background was from the reaction carried out without enzyme and DMSO instead of compound. All reactions were incubated at 37° C. in a water bath for 30 min and then cooled to room temperature. Aliquots (5 μl) were then added to 384-well plate (Thermo Scientific, Waltham, Mass., Cat #164610) to which 5 μl of UDP Detection Reagent was also added. Duplicate measures were made for all reactions. After 1 h at room temperature the luminescent signals were determined using a Tecan Infinite M1000 (Tecan Group Ltd., Männedorf, Switzerland) with integration time set to 1000 msec. The background-subtracted average for each compound was expressed as a percentage of the negative control (taken as 100%). Compounds with ≥50% effect were considered direct modulators.
(§5) Titration assays. For the sensor assay, about 200,000 cells expressing either sensor were seeded into Greiner Bio-One 24-well plates (Sigma-Aldrich, Cat #662160). After 24 h, the cells were incubated for another 6 h in the presence of 0-50 μM compound. To release the cells the medium was replaced with 200 μl 5 mM EDTA/PBS containing 110 nM MG dye. After 5 min at 37° C., fluorescence measurements (20,000 cells/well) were carried out as described above. For the biochemical assay, the assay conditions were identical except for variations in the compound or substrate concentrations as indicated in the figure legends. Data analysis was completed using Prism (Graph Pad Prism Inc., SCR_002798).

purified ppGalNAc-T3 = purified ppGalNAc-T3 (Homo sapiens, UniProt Q14435); conditions: for Vmax: percent of control without inhibitor
Protocol: as §3, §4, §5

purified ppGalNAc-T6 = purified ppGalNAc-T6 (Homo sapiens, UniProt Q8NCL4); conditions: purified enzyme, in vitro glycosylation
Protocol: as §4, with “Aliquots (5 μl) were then added to 384-well plate (Thermo Scientific, Waltham, Mass., Cat #164610) to which 5 μl of UDP Detection Reagent was also added. Duplicate measures were made for all reactions.” left out, “Compounds with ≥50% effect were considered direct modulators.” left out
as §2

[1] = target: purified lumenal domain of ppGalNAc-T3 (Homo sapiens, UniProt Q14435)
From the text: Tryptophan fluorescence quenching assay. […] The value at the peak of emission at 324 nm was used for the binding curve analysis by Prism.

HeLa cells [2] = conditions: 24 h treatment, 10 or 20 μM
Protocol: Lectin staining. […] After staining, the cells were washed twice, lysed with 0.2% Triton X-100 (Fisher Scientific, Cat #BP151-100) for 15 min at 4° C., centrifuged at 14,000×g for 15 min at 4° C., and the supernatants were read in a Greiner Bio-One 96-well glass-bottom plate using a Tecan Infinite M1000 with excitation at 495 nm and emission from 510-550 nm. Three independent trials were carried out and the peak value (520 nm) was used for quantification.

MCF7 cells = conditions: MCF7, 5 μM T3Inh-1, 24 h, Matrigel-coated filters
Protocol: (§6) Cell invasion assay. Breast cancer MDA-MB231 cells were grown in DMEM medium (Corning, N.Y., Cat #10-013-CV) with 10% FBS and 100 IU/ml penicillin-streptomycin at 37° C. and 5% CO2 and then plated at a density of 1.32×104 in 0.3 ml of DMEM medium without FBS into the upper chamber of a BIOBOAT™ insert fitted with a 8.0 μm PET membrane (Corning, N.Y., Cat #354578). For migration assays, the filter was uncoated. […] Medium containing 10% FBS (0.6 ml) was placed into the lower chamber as a chemo attractant. The compound (final concentration of 5 μM) or a matching amount of DMSO was added to both chambers. After 24 h or 48 h the cells were fixed with −20° C. methanol for 15 min and then stained with Trypan blue for 5 min. Cells on the upper surface were removed using cotton swabs. Cells present on the underside of the membrane were photographed using an EVOS FL Cell Imaging System (Invitrogen, CA) and the images were thresholded for presentation and counting using Image J (National Institutes of Health, Bethesda, Md., SCR_003070). The assays involving MCF7 cells were identical except that they were performed 24 h post transfection.

MDA-MB231 cells [3] = conditions: 24 or 48 h
Protocol: as §6

MDA-MB231 cells [4] = conditions: MDA-MB231, 5 μM T3Inh-1, 24 or 48 h
Protocol: Proliferation assay. […] After 24, 48 or 72 h, the cells were released using trypsin and counted twice using a hemocytometer for 3 independent trials.

ANGPTL3 = conditions: media of HEK cells transfected with Myc-ANGPTL3, 6 h
Protocol: (§7) Immunoblotting. The FLAG-tagged FGF23, Myc-tagged ANGPTL3 with the T225G modification, and untagged ppGalNAc-T3 (cloned into PCDNA 3.0 using BamH1 sites) were transfected into HEK cells using the JetPEI transfection reagent (VWR International, Radnor, Pa., Cat #101-40N) according to the manufacturer's instructions. After 24 h, the medium was replaced with serum-free MEM containing the compound for 6 h. The medium and cells were then collected and, after trichloroacetic acid precipitation of the medium, analyzed by immunoblot using anti-FLAG antibody at 1:1000 or anti-Myc antibody at 1:2000 and then the peroxidase-coupled secondary antibodies. Emission was captured and quantified using a CHEMIDOC™ Touch Imaging System with Image Lab Software (BioRad, SCR_014210). For ppGalNAc-T3 determinations in different cell lines, cells were collected and lysed with 100 μl buffer (10 mM Tris-HCl (pH8.0), 1 mM EDTA (ACROS ORGANICS, Cat #446085000), 1% Triton X-100, 0.1% sodium deoxycholate (Fisher Scientific, Cat #BP349-100), 0.1% SDS (Fisher Scientific, Cat #BP166-500), 140 mM NaCl (Fisher Scientific, Cat #5271-3), 1 mM PMSF (Sigma-Aldrich, Cat #PMSF-RO). Then 15 μl of each lysate was analyzed by immunoblotting using the purchased anti-ppGalNAc-T3 and anti-α-tubulin antibodies.

FGF23 [5] = test system: FGF23
Protocol: as §7

[6] = mice, 25 and 50 mg/kg intraperitoneal, 1 or 2 injections
Protocol: (§8) Animal analysis. Wild-type C57BL/6 six to eight week old mice were purchased from Charles River Laboratories International Inc. (Wilmington, Mass.). Protocols, handling, and care of the mice conformed to protocols approved by the Institutional Animal Care and Use Committee of Carnegie Mellon University (CMU IACUC protocol AS16-005). The compound was dissolved in DMSO at 25 and 50 mg/ml then further diluted with PEG400 (Hampton Research, CA, USA, HR2-603) to create 5 and 10 mg/ml stocks for injection. Control (vehicle only: 20% DMSO, 80% PEG400) and experimental (25 or 50 mg/kg compound) animals received either single or double (separated by 24 h) intraperitoneal injections and, 24 h after the last injection, a cardiac blood draw was carried out. The cleaved/intact FGF23 ratio was determined using ELISA kits from Immunotopics (Carlsbad, Va., USA, Cat #60-6800, Cat #60-6300) with cleaved equaling total minus intact.

FGF23 [7] = conditions: mice; for ratio of cleaved/intact FGF23 in the blood: 1 or 2 injections, blood 24 h after last
Protocol: as §8

HeLa cells [8] = conditions: 6 h, 10 μM

O=C(Nc1ccc(Nc2ccncc2)cc1)c1ccc(Nc2ccnc3ccccc23)cc1 [Compound T3Inh-1]
activity towards the T2 sensor (ppGalNAc-T2): little or no activity
IC50 (ppGalNAc-T3): 12 µM
inhibition of ppGalNAc-T2 (purified ppGalNAc-T2): undetectable
inhibition of ppGalNAc-T3 in the secondary screen (purified ppGalNAc-T3; 50 μM compound, versus ppGalNAc-T2): strong and selective inhibitor
IC50 (purified ppGalNAc-T3; read-out: IC50 of inhibition of ppGalNAc-T3, purified enzyme, in vitro glycosylation): 7 µM
Ki (purified ppGalNAc-T3; substrate varied: Peptide (EA2)): 9.9 µM
Vmax (purified ppGalNAc-T3; substrate varied: Peptide (EA2), 7.5 μM T3Inh-1): 82%
Vmax (purified ppGalNAc-T3; substrate varied: Peptide (EA2), 15 μM T3Inh-1): 36%
Ki (purified ppGalNAc-T3; substrate varied: UDP-GalNAc): 2.9 µM
Vmax (purified ppGalNAc-T3; substrate varied: UDP-GalNAc, 7.5 μM T3Inh-1): 71%
Vmax (purified ppGalNAc-T3; substrate varied: UDP-GalNAc, 15 μM T3Inh-1): 56%
activity against ppGalNAc-T6 (purified ppGalNAc-T6): lacked activity
Kd ([1]; read-out: apparent Kd of direct binding, quenching at 324 nm): 17 µM
affinity of binding to GalNAc-T3 ([1]; stated in words): low micromolar
staining intensity by lectin Concanavalin A (ConA) (HeLa cells [2]): did not affect
staining intensity by lectin Sambucus Nigra (SNA) (HeLa cells [2]): did not affect
staining intensity by lectin Vicia Villosa (VVA) (HeLa cells [2]): did not affect
staining intensity by lectin Wheat germ agglutinin (WGA) (HeLa cells [2]): did not affect
increase of invasion caused by ppGalNAc-T3 transfection (MCF7 cells): strongly blocked
inhibition of invasion (MDA-MB231 cells [3]; 5 μM T3Inh-1, Matrigel-coated filters): 98%
inhibition of migration (MDA-MB231 cells [3]; 5 μM T3Inh-1, uncoated filters): > 80%
effect on cell proliferation (MDA-MB231 cells [4]): no discernable effect
secreted intact ANGPTL3 (ANGPTL3): remained high at all concentrations
intact and cleaved FGF23 in cell lysates (FGF23 [5]; cell extracts, 6 h, also with 100 μM chloroquine): no change
half-max of increase in ratio of cleaved/intact FGF23 (FGF23 [5]; media of HEK cells co-expressing FGF23 and ppGalNAc-T3, 6 h): 14 µM
secreted intact FGF23 (FGF23 [5]; media, 6 h, increasing concentrations): dose-dependent loss
effects on animal health [6]: no apparent ill effects
ratio of cleaved/intact FGF23 in the blood (FGF23 [7]; 25 mg/kg intraperitoneal): robust and statistically significant increase
ratio of cleaved/intact FGF23 in the blood (FGF23 [7]; 50 mg/kg intraperitoneal): robust and statistically significant increase
increase of level of proteolyzed C-terminal FGF23 fragment (FGF23 [7]; intraperitoneal injection): 8 fold
HEK cell proliferation (HEK cells; 0-50 μM, 24, 48, 72 h, cell counting): did not affect
toxicity (HEK cells; HEK cells, continuous exposure 24, 48, 72 h): no toxicity
localization or expression level of ppGalNAc-T3, ppGalNAc-T2 or any other Golgi marker tested (HeLa cells [8]): no change
